Assay results from US20240376097A1, “BCL-2 Inhibitor” (BeiGene Ltd., priority 2020, published 2024).
Where two headings read alike, the source gives them in different places.

How the values were obtained:
Mouse PK Study = assay type: in vivo; conditions: plasma, male CD-1 mouse
Procedure: Biological Example: Mouse PK Study
The pharmacokinetics of compounds were evaluated in male CD-1 mouse via Intravenous (dose of 1 mg/kg) and Oral Administration (dose of 10 mg/kg). For intravenous administration study, test compounds were dissolved in DMSO/EtOH/Cremophor EL/D5W (2.5/10/20/67.5, by volume) and injected with a 1 mg/kg dose via tail vein. For oral administration study, test compounds were dissolved in PEG400/Phosal 50 PG/EtOH (30/60/10, by volume) and administrated to mice at 10 mg/kg by gavage. Blood was collected into EDTA-K2 anticoagulant tube at 5 (IV only). 15, and 30 min and 1, 2, 4, 8 and 24 h after administration. Approximately 30 μL blood was collected at each time point. And then the blood was centrifuged at 3000 g for 5 min at 4° C. using a centrifuge to obtain the plasma. The plasma sample was transferred into a tube and stored in a freezer at approximately −20° C. until the determination of concentration by LC-MS/MS. Pharmacokinetic parameter were estimated by using WinNonlin software (version 8.1, Pharsight Corporation, CA, USA) with non-compartmental method. The following pharmacokinetic parameters were calculated, whenever possible from the plasma concentration-time data: CL, Vd, T1/2, AUClast, AUCinf for IV administration and Tmax, Cmax, AUClast, AUCinf, T1/2 for PO administration. All animals are free fed before experiment. For comparison purpose, the PK results of certain compounds in previous disclosure were obtained using the same methods.

[1] = biological target: recombinant human Bcl-2 D103Y protein (Homo sapiens (Human), UniProt P10415, D103Y); experiment: Bcl-2-D103Y Biochemical Assay (TR-FRET); assay type: binding; conditions: for IC50: TR-FRET, FITC labeled Bak peptide; for Ratio of Bcl-2 D103Y/Bcl-2 WT: ratio of IC50
Sequence of recombinant human Bcl-2 D103Y protein (P10415 whole entry D103Y): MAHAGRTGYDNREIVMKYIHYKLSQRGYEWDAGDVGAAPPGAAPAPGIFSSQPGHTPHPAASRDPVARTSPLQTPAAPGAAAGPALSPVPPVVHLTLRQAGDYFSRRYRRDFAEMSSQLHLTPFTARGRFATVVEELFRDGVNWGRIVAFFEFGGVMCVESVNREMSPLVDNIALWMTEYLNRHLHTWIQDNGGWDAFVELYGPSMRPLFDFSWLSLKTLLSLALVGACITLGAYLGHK
Outline: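 Compounds titrated against the Bcl-2 D103Y–ligand interaction; inhibition derived from the TR-FRET emission ratio 490 nm/520 nm after 337 nm excitation. Four-parameter logistic fitting gave IC50.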

[2] = biological target: Recombinant human Bcl-2 protein (Homo sapiens (Human), UniProt P10415); experiment: Bcl-2 TR-FRET Assay; assay type: binding
Sequence of Recombinant human Bcl-2 protein (P10415 whole entry): as the sequence (P10415 whole entry D103Y) above, with Y103D counted along it
Outline: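 TR-FRET read (337 nm excitation, 520/490 nm emission) after 1 h with 0.5 nM FITC-labeled Bak peptide and Tb-cryptate anti-6His antibody. Bcl-2 at 0.05 nM had been pre-incubated 0.5 h with compound. IC50 fitted by four-parameter logistic equation.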

[3] = Metabolic Stability Study, liver microsome incubation (human); assay type: in vitro ADME; conditions: human liver microsomes 0.5 mg/mL, 1 μM compound, NADPH; for half-life at 1 μM: NA^# = very stable, beyond the detection limits, read-out: T1/2 (min) Human; for microsomal CLint at 1 μM: read-out: CLint (μL × min^−1 × mg^−1) Human
Outline: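 Test compounds (1 μM) incubated at 37° C with 0.5 mg/mL liver microsomes plus NADPH regenerating system; samples quenched at 0, 30 and 60 min. Parent loss measured by LC-MS/MS, giving CLint and T1/2, with CLint normalised to microsomal protein concentration.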

[4] = Bcl-2 wild type, TR-FRET, read-out: Biochemical assay (IC50, nM) Bcl-2 WT
[5] = wild type Bcl-2, unit inferred, read-out: Bcl-2 WT

| Compound | AUC(0-t) (Mouse PK Study; Iv dosing (1 mg/kg)) | Vd (Mouse PK Study; Iv dosing (1 mg/kg)) | clearance (Mouse PK Study; Iv dosing (1 mg/kg)) | AUC(0-t) (Mouse PK Study; Po dosing (10 mg/kg)) | Cmax (Mouse PK Study; Po dosing (10 mg/kg)) | IC50 [1] | Ratio of Bcl-2 D103Y/Bcl-2 WT [1] | IC50 [2, 4] | IC50 [2, 5] | half-life at 1 μM [3] | microsomal CLint at 1 μM [3] | ratio of Bcl-2 D103Y/Bcl-2 wt, compared with F91b in WO2019210828 ([1]; comparison in words) |
| --- | --- | --- | --- | --- | --- | --- | --- | --- | --- | --- | --- | --- |
| CC(C)c1ccccc1[C@@H]1CN(Cc2ccc(F)c(F)c2)CCN1C1CC2(CCN(c3ccc(C(=O)NS(=O)(=O)c4ccc(NC[C@H]5CC[C@](C)(O)CC5)c([N+](=O)[O-])c4)c(Oc4cnc5[nH]ccc5c4)c3)CC2)C1 (single isomer, unassigned) [Example 52a, 2-((1H-pyrrolo[2,3-b]pyridin-5-yl)oxy)-4-(2-((R or S)-4-(3,4-difluorobenzyl)-2-(2-isopropylphenyl)piperazin-1-yl)-7-azaspiro[3.5]nonan-7-yl)-N-((4-((((1r,4r)-4-hydroxy-4-methylcyclohexyl)methyl)amino)-3-nitrophenyl)sulfonyl)benzamide] | 6510 ng·h/mL | 0.62 L/kg | 2.6 mL/min/kg | 20700 ng·h/mL | 2140 ng/mL | 0.37 nM | 2.4 | 0.16 nM | 0.16 nM | – | – | – |
| COc1ccc(CN2CCN(C3CC4(CCN(c5ccc(C(=O)NS(=O)(=O)c6ccc(NCC7(F)CCOCC7)c([N+](=O)[O-])c6)c(Oc6cnc7[nH]ccc7c6)c5)CC4)C3)[C@H](c3ccccc3C(C)C)C2)cc1 (single isomer, unassigned) [Example 32, (R or S)-2-((1H-pyrrolo[2,3-b]pyridin-5-yl)oxy)-N-((4-(((4-fluorotetrahydro-2H-pyran-4-yl)methyl)amino)-3-nitrophenyl)sulfonyl)-4-(2-(2-(2-isopropylphenyl)-4-(4-methoxybenzyl)piperazin-1-yl)-7-azaspiro[3.5]nonan-7-yl)benzamide] | 10500 ng·h/mL | 0.48 L/kg | 1.5 mL/min/kg | 21200 ng·h/mL | 1440 ng/mL | 0.11 nM | 1.1 | 0.096 nM | 0.096 nM | 533 min | 2.6 µL/min/mg | – |
| COc1ccc(CN2CCN(C3CC4(CCN(c5ccc(C(=O)NS(=O)(=O)c6ccc(NC[C@H]7CC[C@](C)(O)CC7)c([N+](=O)[O-])c6)c(Oc6cnc7[nH]ccc7c6)c5)CC4)C3)[C@H](c3ccccc3C(C)C)C2)cc1 [Example 19a, 2-((1H-pyrrolo[2,3-b]pyridin-5-yl)oxy)-N-((4-((((1r,4r)-4-hydroxy-4-methylcyclohexyl)methyl)amino)-3-nitrophenyl)sulfonyl)-4-(2-((R)-2-(2-isopropylphenyl)-4-(4-methoxybenzyl)piperazin-1-yl)-7-azaspiro[3.5]nonan-7-yl)benzamide] | 12300 ng·h/mL | 0.48 L/kg | 1.4 mL/min/kg | 20000 ng·h/mL | 1590 ng/mL | 0.15 nM | 2.6 | 0.057 nM | 0.057 nM | – | < 1 µL/min/mg | significantly lower |
| COc1cc(CN2CCN(C3CC4(C3)CN(c3ccc(C(=O)NS(=O)(=O)c5ccc(NC[C@H]6CC[C@](C)(O)CC6)c([N+](=O)[O-])c5)c(Oc5cnc6[nH]ccc6c5)c3)C4)[C@H](c3ccccc3C(C)C)C2)ccc1C1CC1 [Example 233, 2-((1H-pyrrolo[2,3-b]pyridin-5-yl)oxy)-4-(6-((R)-4-(4-cyclopropyl-3-methoxybenzyl)-2-(2-isopropylphenyl)piperazin-1-yl)-2-azaspiro[3.3]heptan-2-yl)-N-((4-((((1r,4r)-4-hydroxy-4-methylcyclohexyl)methyl)amino)-3-nitrophenyl)sulfonyl)benzamide] | 17200 ng·h/mL | 0.8 L/kg | 1 mL/min/kg | 17400 ng·h/mL | 1100 ng/mL | 0.83 nM | 1.9 | 0.43 nM | 0.43 nM | 534 min | 2.6 µL/min/mg | – |
| COc1cc(CN2CCN(C3CC4(C3)CN(c3ccc(C(=O)NS(=O)(=O)c5ccc(NC[C@H]6CC[C@](C)(O)CC6)c([N+](=O)[O-])c5)c(Oc5cnc6[nH]cc(F)c6c5)c3)C4)[C@H](c3ccccc3C(C)C)C2)cc2cc(C)oc12 [Example 338, 2-((3-fluoro-1H-pyrrolo[2,3-b]pyridin-5-yl)oxy)-N-((4-((((1r,4r)-4-hydroxy-4-methylcyclohexyl)methyl)amino)-3-nitrophenyl)sulfonyl)-4-(6-((R)-2-(2-isopropylphenyl)-4-((7-methoxy-2-methylbenzofuran-5-yl)methyl)piperazin-1-yl)-2-azaspiro[3.3]heptan-2-yl)benzamide] | 42900 ng·h/mL | 0.37 L/kg | 0.4 mL/min/kg | 11600 ng·h/mL | 699 ng/mL | 1 nM | 1.7 | 0.59 nM | 0.59 nM | 659 min | 2.1 µL/min/mg | – |
| CC(C)c1ccccc1C1CN(Cc2cccc(F)c2)CCN1C1CC2(CCN(c3ccc(C(=O)NS(=O)(=O)c4ccc(NC[C@H]5CC[C@](C)(O)CC5)c([N+](=O)[O-])c4)c(Oc4cnc5[nH]ccc5c4)c3)CC2)C1 (stereo partly shown) [Example 43, 2-((1H-pyrrolo[2,3-b]pyridin-5-yl)oxy)-4-(2-(4-(3-fluorobenzyl)-2-(2-isopropylphenyl)piperazin-1-yl)-7-azaspiro[3.5]nonan-7-yl)-N-((4-((((1r,4r)-4-hydroxy-4-methylcyclohexyl)methyl)amino)-3-nitrophenyl)sulfonyl)benzamide] | – | – | – | – | – | 0.83 nM | 2.7 | 0.31 nM | 0.31 nM | 108 min | 12.8 µL/min/mg | – |
| COc1cc(CN2CCN(C3CC4(CCN(c5ccc(C(=O)NS(=O)(=O)c6ccc(NC[C@H]7CC[C@](C)(O)CC7)c([N+](=O)[O-])c6)c(Oc6cnc7[nH]cc(F)c7c6)c5)CC4)C3)[C@H](c3ccccc3C(C)C)C2)cc2c1OCC2(C)C [Example 285, 2-((3-fluoro-1H-pyrrolo[2,3-b]pyridin-5-yl)oxy)-N-((4-((((1r,4r)-4-hydroxy-4-methylcyclohexyl)methyl)amino)-3-nitrophenyl)sulfonyl)-4-(2-((R)-2-(2-isopropylphenyl)-4-((7-methoxy-3,3-dimethyl-2,3-dihydrobenzofuran-5-yl)methyl)piperazin-1-yl)-7-azaspiro [3.5]nonan-7-yl)benzamide] | – | – | – | – | – | 0.49 nM | 1.9 | 0.26 nM | 0.26 nM | 299 min | 4.6 µL/min/mg | – |
| CC(C)c1ccccc1[C@@H]1CN(Cc2cccc3c2OCCO3)CCN1C1CC2(CCN(c3ccc(C(=O)NS(=O)(=O)c4ccc(NC[C@H]5CC[C@](C)(O)CC5)c([N+](=O)[O-])c4)c(Oc4cnc5[nH]ccc5c4)c3)CC2)C1 [Example 79a, 2-((1H-pyrrolo[2,3-b]pyridin-5-yl)oxy)-4-(2-(R-4-((2,3-dihydrobenzo [b][1,4]dioxin-5-yl)methyl)-2-(2-isopropylphenyl)piperazin-1-yl)-7-azaspiro[3.5]nonan-7-yl)-N-((4-((((1r,4r)-4-hydroxy-4-methylcyclohexyl)methyl)amino)-3-nitrophenyl)sulfonyl)benzamide] | – | – | – | – | – | 0.2 nM | 1.9 | 0.11 nM | 0.11 nM | 253 min | 5.5 µL/min/mg | – |
| COc1cc(CN2CCN(C3CC4(C3)CN(c3ccc(C(=O)NS(=O)(=O)c5ccc(NC[C@H]6CC[C@](C)(O)CC6)c([N+](=O)[O-])c5)c(Oc5cnc6[nH]cc(F)c6c5)c3)C4)[C@H](c3ccccc3C(C)C)C2)ccc1C1CC1 [Example 232, 4-(6-((R)-4-(4-cyclopropyl-3-methoxybenzyl)-2-(2-isopropylphenyl)piperazin-1-yl)-2-azaspiro[3.3]heptan-2-yl)-2-((3-fluoro-1H-pyrrolo[2,3-b]pyridin-5-yl)oxy)-N-((4-((((1r,4r)-4-hydroxy-4-methylcyclohexyl)methyl)amino)-3-nitrophenyl)sulfonyl)benzamide] | 14400 ng·h/mL | 1.2 L/kg | 1.2 mL/min/kg | 18300 ng·h/mL | 1090 ng/mL | 0.95 nM | 1.6 | 0.7 nM | 0.59 nM | 822 min | 1.7 µL/min/mg | – |
